In patent publication US20190343873A1, “SEQUENCE-SELECTIVE GENE EXPRESSION REGULATORS” (KYOTO UNIVERSITY, priority 2018, published 2019):

Legend:
[1] = target: T1, Nuc2 (reconstituted nucleosome with five match sequences for Bi-PIP2) / recombinant human P300 (Homo sapiens, UniProt Q09472); assay: HAT reaction-in vitro ChIP-qPCR with recombinant P300, acetylation of Nuc2; assay type: biochemical; details: 100 nM compound, mixture of Nuc1 and Nuc2
T1 construct: 10 nM recombinant human P300 (amino acids 965-1810); purchased BPS Bioscience 50071
T1 sequence (Q09472 965-1810): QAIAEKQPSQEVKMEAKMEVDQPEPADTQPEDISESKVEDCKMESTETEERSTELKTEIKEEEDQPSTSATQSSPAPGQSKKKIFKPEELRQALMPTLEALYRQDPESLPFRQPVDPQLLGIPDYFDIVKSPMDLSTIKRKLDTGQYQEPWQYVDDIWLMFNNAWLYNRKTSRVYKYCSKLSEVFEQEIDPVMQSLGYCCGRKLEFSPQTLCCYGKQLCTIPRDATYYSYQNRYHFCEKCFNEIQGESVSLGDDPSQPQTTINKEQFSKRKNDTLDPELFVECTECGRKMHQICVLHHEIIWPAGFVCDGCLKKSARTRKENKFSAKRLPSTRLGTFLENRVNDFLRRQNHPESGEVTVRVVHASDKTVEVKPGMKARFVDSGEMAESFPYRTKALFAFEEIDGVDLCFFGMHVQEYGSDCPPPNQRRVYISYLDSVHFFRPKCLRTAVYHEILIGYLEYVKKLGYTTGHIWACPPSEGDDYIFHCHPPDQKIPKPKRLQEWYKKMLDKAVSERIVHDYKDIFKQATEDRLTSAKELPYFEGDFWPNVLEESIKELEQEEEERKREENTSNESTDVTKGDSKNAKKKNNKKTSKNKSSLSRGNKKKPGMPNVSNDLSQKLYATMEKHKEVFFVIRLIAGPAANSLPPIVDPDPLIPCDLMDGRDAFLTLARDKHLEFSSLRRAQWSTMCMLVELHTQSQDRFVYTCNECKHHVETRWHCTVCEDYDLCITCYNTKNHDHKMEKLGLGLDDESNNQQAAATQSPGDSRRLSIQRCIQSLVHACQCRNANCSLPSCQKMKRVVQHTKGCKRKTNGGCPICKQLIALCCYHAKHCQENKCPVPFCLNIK
Excerpt: (§1) To test sequence-selective histone acetylation by Bi-PIP, a biochemical assay (HAT reaction-in vitro ChIP-qPCR) was established by combining HAT reaction followed by immunoprecipitation utilizing reconstituted nucleosomes as reported previously (Nguyen et al., Nat. Methods 2014, 11, 834-40) and quantitative polymerase chain reaction (qPCR) (FIGS. 2A to 2C).
(§2) Mononucleosomes were reconstituted utilizing a salt-dialysis method from a histone octamer and DNA templates that each have a Widom 601 nucleosome positioning sequence and five PIP-binding sequences: 5′-AACAGTCA-3′ for Bi-PIP1 and 5′-AGCCGCCA-3′ for Bi-PIP2 (FIG. 2A). Gel electrophoresis confirmed that the majority of DNA templates were successfully formed on the nucleosome. […]
(§3) To a HAT reaction (15 μL), 85 μL of an AB buffer (20 mM Tris-HCl, pH 7.5, 50 mM NaCl, 5 mM EDTA) containing 1/500 volume of anti-acetylated H3 (Abcam, ab47915) was added and rotated for 1 hour at room temperature. […] The DNA solution was diluted, and amount of the precipitated each nucleosome was measured by qPCR utilizing SYBR FAST qPCR Kit (Kapa Bioscience) on LightCycler 480 (Roche Diagnostics GmbH) (FIG. 2B). Cp values were determined by the 2nd derivative maximum method and relative […] amount was calculated by the ΔΔCp method. […]

HEK293T cells = assay: Transcriptome analysis (microarray) of cells treated with Bi-PIPs; assay type: cell-based, human; details: 1 μM, 15 hours; for downregulated transcripts: criteria <−2-fold change and <0.05 P value vs vehicle; for most upregulated protein-coding gene among uniquely activated transcripts: criteria >1.5- or <−1.5-fold change, FIG. 7A; for upregulated transcripts: criteria >2-fold change and <0.05 P value vs vehicle; for change in global gene expression (in words) / transcripts commonly upregulated by both Bi-PIP1 and Bi-PIP2: microarray
Experimental: Considering the fundamental role of P300/CBP as the transcriptional coactivator to activate gene expression, transcriptome analyses of total RNA extracted from cells (HEK293T cells) treated with Bi-PIPs were performed. […]
HEK293T line was purchased from ATCC and maintained in DMEM (Thermo Fisher Scientific) supplemented with 10% (v/v) fetal bovine serum (FBS, Sigma Aldrich) at 37° C. with 5% CO2. For the Bi-PIP treatment, the cells were seeded on 24 well plates (2×10^5 cells/well). After one day, 1 μM of each Bi-PIP and 4 μM of Endo-Porter (10% polyethylene glycol form, Gene Tools) were added. As a vehicle, 0.1% DMSO (v/v) was used. After 15 hours of Bi-PIP treatment, RNA was extracted using FastGene™ RNA Basic Kit (Nippon Genetics) following manufacture's instruction.
The quality of RNA was checked with Bioanalyzer (Agilent Technologies) using Agilent RNA 6000 Pico Kit (Agilent Technologies). The total RNA was processed by GeneChip WT PLUS Reagent Kit (Affymetrix) and hybridized to Human Gene 2.1 ST Array Strip (Affymetrix) using GeneChip Hybridization, Wash, and Stain Kit (Affymetrix). Fluidics and scanning were conducted in GeneAtlas System (Affymetrix) using GeneChip Hybridization, Wash, and Stain Kit (Affymetrix). Data normalization, summarization and comparison were performed using Transcriptome Analysis Console v4 (Affymetrix).

[2] = target: T2, Nuc1 (reconstituted nucleosome with five match sequences for Bi-PIP1) / recombinant human P300 (Homo sapiens, UniProt Q09472); assay: HAT reaction-in vitro ChIP-qPCR with recombinant P300, acetylation of Nuc1; assay type: biochemical; details: mixture of Nuc1 and Nuc2
T2 construct: 10 nM recombinant human P300 (amino acids 965-1810); purchased BPS Bioscience 50071
T2 sequence (Q09472 965-1810): T1 sequence (Q09472 965-1810)
Excerpt: as §1, §2, §3

[3] = target: T3, Nuc1 histones / recombinant human P300 (Homo sapiens, UniProt Q09472); assay: HAT reaction followed by LC-MS/MS analysis of histone peptides; assay type: biochemical; details: 2.5 μM vs 0 compound, Nuc1 500 nM, P300 50 nM, Ac-CoA 10 μM
T3 construct: 10 nM recombinant human P300 (amino acids 965-1810); purchased BPS Bioscience 50071
T3 sequence (Q09472 965-1810): T1 sequence (Q09472 965-1810)
Experimental: Histone acetylation with Bi-PIP was directly confirmed by mass spectrometry analysis. After HAT reaction using Nuc1 (500 nM), B PIP1 (0 or 2.5 μM), recombinant human P300 (50 nM) and Ac-CoA (10 μM), the histones were processed through propionylation of unmodified lysine, tryptic digestion, and propionylation of terminal amine. The resulting peptides were analyzed by liquid chromatography-tandem mass spectrometry (LC-MS/MS).

[4] = system: Nuc1 / HeLa nuclear extract; assay: HAT reaction-in vitro ChIP-qPCR with HeLa nuclear extract as HAT resource, Nuc1; assay type: biochemical, human; details: 100 nM compound; HeLa nuclear extract 2% v/v; FIG. 6

How did the “acetylation of Nuc2 (anti-acetylated H3 ChIP-qPCR)” value ([1]; 10 nM P300 (amino acids 965-1810), FIG. 5) turn out when `Cc1noc(C)c1-c1ccc2c(c1)nc(CCc1ccc(OCCNC(=O)CCCCC(=O)NCCOCCOCC(=O)NCCOCCOCC(=O)Nc3cn(C)c(C(=O)Nc4cn(C)c(C(=O)NCCC(=O)Nc5cn(C)c(C(=O)Nc6cn(C)c(C(=O)Nc7cc(C(=O)NCCCC(=O)Nc8cn(C)c(C(=O)Nc9cc(C(=O)NCCC(=O)Nc%10cn(C)c(C(=O)Nc%11cc(C(=O)Nc%12cc(C(=O)NCCCN(C)C)n(C)c%12)n(C)c%11)n%10)n(C)c9)n8)n(C)c7)n6)n5)n4)n3)cc1)n2CCN1CCOCC1` [Bi-PIP2] was run?
Its value is “selective acetylation of Nuc2”.

What about the downregulated transcripts (HEK293T cells) of the same compound?
The downregulated transcripts was 137.

What about the “most upregulated protein-coding gene among uniquely activated transcripts” value (HEK293T cells) of the same compound?
Its value is “IER5L”.

What about the upregulated transcripts (HEK293T cells) of the same compound?
The upregulated transcripts was 446.

What about the “change in global gene expression (in words)” value (HEK293T cells) of the same compound?
The value was “greater transcriptome changes”.

And the “transcripts commonly upregulated by both Bi-PIP1 and Bi-PIP2” value (HEK293T cells)?
Its value is 247.

Which “acetylation of Nuc1 (anti-acetylated H3 ChIP-qPCR)” value ([2]; 100 nM compound, P300 0, 1, 3, 10, 30, 100 nM, FIG. 3) does the source give for `Cc1noc(C)c1-c1ccc2c(c1)nc(CCc1ccc(OCCNC(=O)CCCCC(=O)NCCOCCOCC(=O)NCCOCCOCC(=O)Nc3cn(C)c(C(=O)Nc4cc(C(=O)Nc5cc(C(=O)NCCC(=O)Nc6cn(C)c(C(=O)Nc7cc(C(=O)NCCCC(=O)Nc8cc(C(=O)Nc9cc(C(=O)NCCC(=O)Nc%10cn(C)c(C(=O)Nc%11cc(C(=O)Nc%12cc(C(=O)NCCCN(C)C)n(C)c%12)n(C)c%11)n%10)n(C)c9)n(C)c8)n(C)c7)n6)n(C)c5)n(C)c4)n3)cc1)n2CCN1CCOCC1` [Bi-PIP1] here?
Its value is “induced intensive acetylation”.

What about the “acetylation of target nucleosome Nuc1 (anti-acetylated H3 ChIP-qPCR)” value ([2]; 100 nM each compound, 10 nM P300 (amino acids 965-1810), FIG. 4) of the same compound?
Its value is “Nuc1-selective acetylation”.

And the “acetylation of Nuc2 (anti-acetylated H3 ChIP-qPCR)” value ([1]; P300 0, 1, 3, 10, 30, 100 nM, FIG. 3)?
Its value is “acetylation was not induced”.

And the “acetylation in the N-terminal region of histone H4 (H4K5ac, H4K8ac, H4K12ac)” value [3]?
Its value is “acetylation was promoted”.

What about the “signal intensity of peptides containing acetyl lysine at the N-terminal tail region of H3 (H3K14ac, H3K18ac, H3K23ac, H3K27ac, H3K36ac)” value [3] of the same compound?
Its value is “increase in the signal intensity”.

And the “acetylation of Nuc1 in nuclear extract” value [4]?
Its value is “enhanced acetylation of Nuc1”.

And the downregulated transcripts (HEK293T cells)?
Its downregulated transcripts is 258.

And the “most upregulated protein-coding gene among uniquely activated transcripts” value (HEK293T cells)?
The value was “NTS”.

What about the upregulated transcripts (HEK293T cells) of the same compound?
Its upregulated transcripts is 473.

What about the “change in global gene expression (in words)” value (HEK293T cells) of the same compound?
Its value is “greater transcriptome changes”.

What about the “transcripts commonly upregulated by both Bi-PIP1 and Bi-PIP2” value (HEK293T cells) of the same compound?
The value was 247.
